Where two headings read alike, the source gives them in different places.
What was measured:
Escherichia coli [1] = assay: Combined in vitro use, checkerboard dilution method; format: cell-based
Experimental: (§1) Mueller-Hinton broth (MH broth) medium, Trypticase Soy Broth (TSB Broth) medium, purchased from BD Difco, Cockeysville, MD, USA; • 96-well plate: Corning Costar, Cambridge, MA, USA; • Test method: the checkerboard dilution method was used for determination.
(§2) (1) Preparation of the test samples: 4 mg of each sample was taken and was prepared into a test solution at 2,048 μg/mL with MH broth, and the test solution was diluted two-fold in a 96-well plate to prepare solutions of a series of gradient concentrations.
(§3) (2) Preparation of a bacteria solution: The test strains were amplified by Trypticase Soy Broth (TSB Broth) according to the CLSI/NCCLS standard.
(§4) (3) Addition of the samples: 10 μL of the bacteria solution with a concentration of 6×10^5 CFU/mL was pipetted into each well of the 96-well plate. Each well contained the antibacterial drugs (the compound of formula (I-1) and the compound of formula (I-2)) diluted two-fold with broth and the aforementioned lactamase inhibitor or efflux pump inhibitor. […] The samples were mixed thoroughly. Three parallel experiments were set up for each concentration and the results were averaged. To the negative control group, 10 μL of the bacterial solution and 90 μL MH broth were added.
(§5) (4) Incubation: the 96-well plate was placed in a 37° C. constant-temperature incubator for 18 hours, and the growth of the strains was observed.
(§6) (5) Calculation: The in vitro effect of each drug-inhibitor combination was analyzed by calculating the FICI value: FICI=(MIC of drug A in the combination/MIC of drug A alone)+ (MIC of drug B in the combination/MIC of drug B alone).
(§7) In order to ensure the reliability of the data, three repeated tests were conducted on different dates and the results were averaged.

Enterobacter cloacae [2] = assay: as above; format: cell-based; details: compound of formula (I-1) combined with avibactam; Enterobacter cloacae ATCC 2468
Experimental: as §1, §2, §3, §4, §5, §6, §7

Pseudomonas aeruginosa [3] = assay: as above; format: cell-based
Experimental: as §1, §2, §3, §4, §5, §6, §7

Acinetobacter baumannii [4] = assay: as above; format: cell-based
Experimental: as §1, §2, §3, §4, §5, §6, §7

Klebsiella pneumoniae = assay: as above; format: cell-based
Experimental: as §1, §2, §3, §4, §5, §6, §7

Escherichia coli [5] = assay: MIC assay of individual compounds (microdilution, CLSI/NCCLS); format: cell-based; details: individual compound, read-out: MIC
Experimental: (§8) Mueller-Hinton broth (MH broth) medium, Trypticase Soy Broth (TSB Broth) medium, purchased from BD Difco, Cockeysville, MD, USA; • 96-well plate: Corning Costar, Cambridge, MA, USA; • Test method: the antibacterial activities were tested by the microdilution method according to the CLSI/NCCLS standard.
(§9) (1) Preparation of the test samples: 4 mg of each sample was taken, and was prepared into a test solution at 1,024 μg/mL with MH broth, and the test solution was diluted two-fold in a 96-well plate to prepare solutions of a series of gradient concentrations, the volume in each well being 90 μL.
as §3
(§10) (3) Addition of the samples: a bacteria solution with a concentration of 6×10^5 cfu/mL was prepared, and 10 μL of the bacteria solution was pipetted into each well of the 96-well plate. Three parallel experiments were set up for each concentration and the results were averaged. To the negative control group, 10 μL of the bacterial solution and 90 μL MH broth were added.
(§11) (4) Incubation: the 96-well plate was placed in a 37° C. constant-temperature incubator for 18 hours, and the growth of the strains was observed. The drug concentration in the well with no microbial growth was recorded as the MIC.

Enterobacter cloacae [6] = assay: as above; format: cell-based; details: individual compound, read-out: MIC
Experimental: as §8, §9, §3, §10, §11

Pseudomonas aeruginosa [7] = assay: as above; format: cell-based; details: individual compound, read-out: MIC
Experimental: as §8, §9, §3, §10, §11

Acinetobacter baumannii [8] = assay: as above; format: cell-based; details: individual compound, read-out: MIC
Experimental: as §8, §9, §3, §10, §11

[9] = tested on: Klebsiella pneumoniae ATCC BAA2146 (NDM-1); assay: Protective effect on mice systemically infected (survival within 7 days); format: in vivo, ICR mice; details: for Number of animals survived: 5 mice
Experimental: ICR mice (half male and half female) with healthy appearance and a weight of 18 to 22 g were used. The mice were randomly grouped, with 5 mice (either male or female) in each dose group.
To the mice infected intraperitoneally with NDM-1-producing Klebsiella pneumoniae (at a dose of 3.0×10^6 CFU), drugs were administered once through the tail vein at certain doses (see Table 5) at 1 h and 6 h respectively after the infection for a total of two administrations, with the volume of the drugs administered being 10 mL/kg. The survival of the animals in each group was observed within 7 days, and the survival rates of the mice were calculated. The control group was not given any drugs, and given only physiological saline, and the seven-day survival rate of the mice was 0.
The protective effects of the compound of formula (I-1) administered alone and in combination with avibactam on mice systemically infected with Klebsiella pneumoniae ATCC BAA2146 (NDM-1) are shown in Table 5.

[10] = individual compound 16 mg/kg i.v. (tail vein) at 1 h and 6 h after infection
[11] = individual compound 32 mg/kg i.v. (tail vein) at 1 h and 6 h after infection

CC1(C)[C@H](NC(=O)/C(=N\OC2(C(=O)O)CC2)c2csc(N)n2)C(=O)N1OS(=O)(=O)O [Compound of formula (I-1)]
MIC in combination (Escherichia coli [1]; compound of formula (I-1) combined with avibactam, Escherichia coli ATCC 2469): 0.125 µg/mL | MIC in combination (Escherichia coli [1]; compound of formula (I-1) combined with avibactam, Escherichia coli CCPM(A)-P-071301): 0.25 µg/mL | MIC in combination (Escherichia coli [1]; compound of formula (I-1) combined with vaborbactam, Escherichia coli CCPM(A)-P-071301): 0.5 µg/mL | MIC in combination (Enterobacter cloacae [2]): 1 µg/mL | reduction of MIC values on combination (Pseudomonas aeruginosa [3]; combined with PAβN, Pseudomonas aeruginosa ATCC27853 and PAO1 (CCPM(A)-P-09000032)): eight-fold | reduction of MIC value on combination (Pseudomonas aeruginosa [3]; combined with PAβN, Pseudomonas aeruginosa CCPM(A)-P-091626 (CRPA)): four-fold | MIC in combination (Pseudomonas aeruginosa [3]; compound of formula (I-1) combined with PAβN, Pseudomonas aeruginosa ATCC27853): 2 µg/mL | MIC in combination (Pseudomonas aeruginosa [3]; compound of formula (I-1) combined with PAβN, Pseudomonas aeruginosa CCPM(A)-P-091626(CRPA)): 8 µg/mL | MIC in combination (Pseudomonas aeruginosa [3]; compound of formula (I-1) combined with PAβN, Pseudomonas aeruginosa PAO1(CCPM(A)-P-09000032)): 2 µg/mL | MIC in combination (Pseudomonas aeruginosa [3]; compound of formula (I-1) combined with berberine, Pseudomonas aeruginosa ATCC27853): 16 µg/mL | MIC in combination (Pseudomonas aeruginosa [3]; compound of formula (I-1) combined with berberine, Pseudomonas aeruginosa CCPM(A)-P-091626(CRPA)): 32 µg/mL | MIC in combination (Pseudomonas aeruginosa [3]; compound of formula (I-1) combined with berberine, Pseudomonas aeruginosa PAO1(CCPM(A)-P-09000032)): 16 µg/mL | MIC in combination (Pseudomonas aeruginosa [3]; compound of formula (I-1) combined with conessine, Pseudomonas aeruginosa PAO1(CCPM(A)-P-09000032)): 16 µg/mL | reduction of MIC values on combination (Acinetobacter baumannii [4]; combined with berberine, Acinetobacter baumannii ATCC19606 and ATCC17978): four-fold | reduction of MIC values on combination (Acinetobacter baumannii [4]; combined with conessine, Acinetobacter baumannii ATCC19606): four-fold | MIC in combination (Acinetobacter baumannii [4]; compound of formula (I-1) combined with PAβN, Acinetobacter baumannii ATCC 17978): 16 µg/mL | MIC in combination (Acinetobacter baumannii [4]; compound of formula (I-1) combined with PAβN, Acinetobacter baumannii ATCC 19606): 16 µg/mL | MIC in combination (Acinetobacter baumannii [4]; compound of formula (I-1) combined with PAβN, Acinetobacter baumannii CCPM(A)-P-101633(CRAB)): 16 µg/mL | MIC in combination (Acinetobacter baumannii [4]; compound of formula (I-1) combined with berberine, Acinetobacter baumannii ATCC 17978): 4 µg/mL | MIC in combination (Acinetobacter baumannii [4]; compound of formula (I-1) combined with berberine, Acinetobacter baumannii ATCC 19606): 4 µg/mL | MIC in combination (Acinetobacter baumannii [4]; compound of formula (I-1) combined with berberine, Acinetobacter baumannii CCPM(A)-P-101633(CRAB)): 16 µg/mL | MIC in combination (Acinetobacter baumannii [4]; compound of formula (I-1) combined with conessine, Acinetobacter baumannii ATCC 19606): 4 µg/mL | MIC in combination (Klebsiella pneumoniae; compound of formula (I-1) combined with avibactam, Klebsiella pneumoniae ATCC 2146): 0.5 µg/mL | MIC in combination (Klebsiella pneumoniae; compound of formula (I-1) combined with avibactam, Klebsiella pneumoniae ATCC 700603): 0.5 µg/mL | MIC in combination (Klebsiella pneumoniae; compound of formula (I-1) combined with avibactam, Klebsiella pneumoniae CCPM(A)-0814R18): 0.25 µg/mL | MIC in combination (Klebsiella pneumoniae; compound of formula (I-1) combined with avibactam, Klebsiella pneumoniae CCPM(A)-0814R33): 0.25 µg/mL | MIC in combination (Klebsiella pneumoniae; compound of formula (I-1) combined with avibactam, Klebsiella pneumoniae CCPM(A)-0817R61): 1 µg/mL | MIC in combination (Klebsiella pneumoniae; compound of formula (I-1) combined with avibactam, Klebsiella pneumoniae CCPM(A)-081705): 0.5 µg/mL | MIC in combination (Klebsiella pneumoniae; compound of formula (I-1) combined with avibactam, Klebsiella pneumoniae CCPM(A)-081715): 0.5 µg/mL | MIC in combination (Klebsiella pneumoniae; compound of formula (I-1) combined with avibactam, Klebsiella pneumoniae CCPM(A)-081716): 0.25 µg/mL | MIC in combination (Klebsiella pneumoniae; compound of formula (I-1) combined with avibactam, Klebsiella pneumoniae CCPM(A)-081729): 0.5 µg/mL | MIC in combination (Klebsiella pneumoniae; compound of formula (I-1) combined with relebactam, Klebsiella pneumoniae ATCC 2146): 0.5 µg/mL | MIC in combination (Klebsiella pneumoniae; compound of formula (I-1) combined with relebactam, Klebsiella pneumoniae ATCC 700603): 0.125 µg/mL | MIC in combination (Klebsiella pneumoniae; compound of formula (I-1) combined with vaborbactam, Klebsiella pneumoniae ATCC 700603): 0.5 µg/mL | MIC in combination (Klebsiella pneumoniae; compound of formula (I-1) combined with vaborbactam, Klebsiella pneumoniae CCPM(A)-0814R33): 0.5 µg/mL | MIC (Escherichia coli [5]; ATCC2469, Escherichia coli ATCC 2469): 1 µg/mL | MIC (Escherichia coli [5]; Escherichia coli CCPM(A)-P-071301): 2 µg/mL | MIC (Enterobacter cloacae [6]; ATCC2468, Enterobacter cloacae ATCC 2468): 2 µg/mL | MIC (Enterobacter cloacae [6]; Enterobacter cloacae CCPM(A)-P-111719): 1 µg/mL | MIC (Pseudomonas aeruginosa [7]; Pseudomonas aeruginosa ATCC27853): 16 µg/mL | MIC (Pseudomonas aeruginosa [7]; Pseudomonas aeruginosa CCPM(A)-P-091626(CRPA)): 32 µg/mL | MIC (Pseudomonas aeruginosa [7]; Pseudomonas aeruginosa PAO1(CCPM(A)-P-09000032)): 16 µg/mL | MIC (Acinetobacter baumannii [8]; ATCC17978, Acinetobacter baumannii ATCC 17978): 16 µg/mL | MIC (Acinetobacter baumannii [8]; ATCC19606, Acinetobacter baumannii ATCC 19606): 16 µg/mL | MIC (Acinetobacter baumannii [8]; Acinetobacter baumannii CCPM(A)-P-101633(CRAB)): 32 µg/mL | Survival rate of animals (%) [9, 10]: 20% | Number of animals survived [9, 10]: 1 | Survival rate of animals (%) [9, 11]: 60% | Number of animals survived [9, 11]: 3
